# Assay results from patent US12492182B2, “Hydroxytriazine compounds and pharmaceutical use thereof” (Japan Tobacco Inc., priority 2015, dated 2025).
# Read-outs that look alike come from different tables or passages of the source.
# How the values were obtained:
# A549 cell = experiment: Evaluation of PGE2 production inhibitory action using A549 cell (IL-1β stimulated); format: cell-based, human; details: Homo sapiens
# Experimental: Experimental Example 2: Evaluation of PGE2 Production Inhibitory Action Using A549 Cell
# A549 cell (Japan Health Sciences Foundation Research Resources Bank), which is cell line derived from humans lung cancer, was suspended in assay medium (Ham's F-12K (Wako, #080-08565) containing 2% FBS (Hyclone Laboratories, #SH30910.03), 100 units/mL penicillin and 100 μg/mL streptomycin (Invitrogen, #15140-122)), the suspension was added at 2.5×10^4 cells/100 μL/well to 96 well flat-bottom plate (Corning, #353072), and the plate was left standing for 20 hr in a CO2 incubator set at 37° C. The test article was serially diluted with DMSO (Nacalai Tesque, #13407-45), and then 20-fold diluted with the assay medium to prepare a test article solution having a ten-fold concentration of the final concentration. The final DMSO concentration during the reaction was set to 0.5% (v/v). The medium was removed from the plate in which the cell was added, new assay medium was added at 160 μL/well to the plate, and the plate was left standing for 10 min in a CO2 incubator. Then, the test article solution was added at 20 μL/well to the plate, and the plate was left standing for 30 min in a CO2 incubator. Next, recombinant humans IL-1β (R&D Systems, #201-LB) as a stimulant to enhance PGE2 production due to increase of mPGES-1 mRNA expression was added at 20 μL/well (the final concentration was 1 ng/mL) to the plate, and the plate was left standing for 18 hr in a CO2 incubator. The supernatant was collected at 180 μL/well, and the PGE2 concentration was measured using Prostaglandin E2 assay (CISbio Bioassays, #62P2APEC) according to the manual. As the reference standard for analytical curve, PGE2 (Cayman Chemical, #14010) was used. Using EnVision 2104 (Perkin Elmer), the time-resolved fluorescence at 620 nm and 665 nm relative to the excitation light at 337 nm was measured. PGE2 concentration was extrapolated from the PGE2 analytical curve. Average of the PGE2 concentrations of the respectively-treated wells was used as the data.
# The PGE2 production inhibitory activity (%) of the test article was calculated according to the following Formula 3. PGE2 production inhibitory activity(%)=(PGE2A−PGE2X)/(PGE2A−PGE2B)×100 [Formula 3] • PGE2A: PGE2 concentration of vehicle-treated well • PGE2B: PGE2 concentration of blank well (no addition of recombinant humans IL-1B) • PGE2X: PGE2 concentration of test article-treated well
# human mPGES-1 = target: T1, human mPGES-1 (Homo sapiens, UniProt O14684); experiment: Evaluation of human mPGES-1 enzyme inhibitory activity (HTRF measurement of PGE2); format: biochemical; details: IC50 value; microsome fraction of CHO-S cells expressing human mPGES-1, PGH2 substrate, PGE2 by HTRF; read-out: humans mPGES-1 enzyme inhibitory activity
# T1 construct: made in house; host or cells: Chinese hamster ovary-derived cells (FreeStyle CHO-S), transient transfection of pcDNA3.1(+)/human mPGES-1; microsome fraction
# T1 sequence (O14684 1-152): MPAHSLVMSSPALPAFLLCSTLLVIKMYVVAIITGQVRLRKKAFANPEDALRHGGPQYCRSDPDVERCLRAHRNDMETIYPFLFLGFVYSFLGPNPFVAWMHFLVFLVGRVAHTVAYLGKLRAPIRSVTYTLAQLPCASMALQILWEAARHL
# Experimental: Experimental Example 1: Evaluation of Human mPGES-1 Enzyme Inhibitory Activity
# The human mPGES-1 enzyme inhibitory activity of a test article was evaluated according to the report of Xu et al. (XU, D et al. MF63 [2-(6-chloro-1H-phenanthro[9,10-d]imidazol-2-yl)-isophthalonitrile], a selective microsomal prostaglandin E synthase-1 inhibitor relieves pyresis and pain in preclinical models of inflammation. J Pharmacol Exp Ther. September 2008, Vol. 326, No. 3, pages 754-763). The amount of PGE2 produced by human mPGES-1 in the presence of a test article was measured by the HTRF (homogeneous time resolved fluorescence) method, and the human mPGES-1 enzyme inhibitory activity of the test article was determined.
# 1) Preparation of Human mPGES-1 Expressing Cell Microsome Fraction
# A DNA fragment containing human mPGES-1, which is added with a BamHI recognition cleavage sequence just before the translation initiation codon and an EcoRI recognition cleavage sequence just after the translation termination codon, was amplified by the PCR (Polymerase Chain Reaction) method using a human mPGES-1 expression plasmid DNA (pME-18S/iPGES-1) prepared in-house as a template. The purified DNA fragment was digested with BamHI and EcoRI, and ligated to pcDNA3.1(+) (Invitrogen, model number V790-20), similarly_digested with BamHI and EcoRI, by using a DNA Ligation kit ver. 2.1 (Takara Bio, model number 6022). The human mPGES-1 expression plasmid DNA was isolated from Escherichia coli DH5a (TOYOBO, model number DNA-903) transformed with the obtained ligation product. The base sequence of human mPGES-1 cloned to a vector was determined by the Dye Terminator method using BigDye Terminator v3.1 Cycle Sequencing Kit (Applied Biosystems, #4337455). The determined sequence was identical with the sequence of the protein translational region of human mPGES-1 (Accession number NM 004878) registered in the NCBI Reference Database.
# Human mPGES-1 expression plasmid DNA was transfected into Chinese hamster ovary-derived cells (FreeStyle CHO-S Cell, Invitrogen, #R^800-07) by using a transgene reagent (FreeStyle MAX Reagent (Invitrogen, #16447-100)), and cultured with shaking (8% CO2, 37° C.) in a medium containing 8 mmol/L L-glutamine (GIBCO FreeStyle CHO Expression Medium, Invitrogen, #12651-022) for 48 hr.
# The CHO-S cells were suspended in Homogenate Buffer (100 mmol/L potassium phosphate (pH 7.4), 250 mmol/L Sucrose, 100 mmol/L EDTA, complete EDTA free (Roche, #1873580)). Using an ultrasonic disruptor UD-201 (Tomy Seiko), the suspended cells were disrupted at output:3, duty cycle:50 for 30 seconds. The precipitate was removed by centrifugation (1,000×g, 5 min, 4° C.), and the supernatant was centrifuged (5,000×g, 10 min, 4° C.). The supernatant was further centrifuged (105,000×g, 60 min, 4° C.). The obtained precipitate was suspended in Resuspension Buffer (100 mmol/L potassium phosphate (pH 7.4), 250 mmol/L sucrose, 100 mmol/L EDTA, 10% glycerol) to give a microsome fraction.
# The protein concentration of the microsome fraction was measured by the Bradford method (Protein Assay Kit, Bio-Rad). The microsome fraction was rapidly frozen in liquid nitrogen and preserved at −80° C. Human mPGES-1 in the microsome fraction was detected by Western Blot using rabbit anti-mPGES-1 polyclonal antibody (ThermoFisher Scientific, #PA1-10264).
# 2) Evaluation of Human mPGES-1 Enzyme Inhibitory Activity
# A test article solution diluted with 0.1 mol/L potassium phosphate, pH 7.4 (hereinafter to be referred to as KPB) or DMSO (Nacalai Tesque, #13407-45) was added at 5 μL/well to 96 well V-bottom plate (Corning, #3363). The final DMSO concentration during the reaction was set to 2%(v/v). Furthermore, a microsome fraction of CHO-S cells expressing human mPGES-1, which was diluted with reduced GSH (12.5 mmol/L KPB solution, SIGMA, #G6529-25G) such that the protein concentration was 5 μg/mL, was added at 20 μL/well. […]
# [1] = A549, 18 h, IC50 value, A549 cell, recombinant IL-1β 1 ng/mL, 18 hr, PGE2 in supernatant, read-out: cell PGE2 production inhibitory activity
# [2] = A549, A549 cell, recombinant human IL-1β stimulation, read-out: cell PGE2 production inhibitory activity (IC50 value)
SMILES,IC50 (A549 cell; [1]) [nM],IC50 (human mPGES-1) [nM],IC50 (A549 cell; [2]) [nM],"inhibition at 0.03 µM (A549 cell; A549 cell, IL-1β stimulation, at the highest concentration given (0.03 μM), read-out: cell PGE2 production inhibitory activity (%), printed in parentheses after the > bound) [%]"
"CC1(c2cccc(-c3nc(O)nc(-c4cc(CNC(=O)C(C)(C)C(F)(F)F)ccc4Cl)n3)c2)CC1 [Example 49, N-(4-chloro-3-{4-hydroxy-6-[3-(1-methylcyclopropyl)phenyl]-1,3,5-triazin-2-yl}benzyl)-3,3,3-trifluoro-2,2-dimethylpropionamide]",7.3,0.5,–,–
CC(C)(C(=O)NCc1ccc(Cl)c(-c2nc(O)nc(-c3ccc(OC4CC4)nc3)n2)c1)C(F)(F)F [Example 50],170,0.5,–,–
CCCCC(C)(C)C(=O)NCc1ccc(Cl)c(-c2nc(O)nc(-c3ccc(OCC)nc3)n2)c1 [Example 51],410,0.6,–,–
"CC(C)c1cccc(-c2nc(O)nc(-c3cc(CNC(=O)C4(C(F)(F)F)CCCC4)ccc3Cl)n2)c1 [Example 52, 1-trifluoromethylcyclopentanecarboxylic acid 4-chloro-3-[4-hydroxy-6-(3-isopropylphenyl)-1,3,5-triazin-2-yl]benzylamide]",6,1.1,–,–
Cc1ccc(-c2nc(O)nc(-c3cc(CNC(=O)C(C)(C)C(F)(F)F)ccc3Cl)n2)cc1C(C)C [Example 53],3.7,0.4,–,–
Cc1ccc(-c2nc(O)nc(-c3cc(CNC(=O)C(C)(C)C(F)(F)F)ccc3Cl)n2)cc1C(C)(C)C [Example 54],2.9,0.5,–,–
CC(C)c1cc(-c2nc(O)nc(-c3cc(CNC(=O)C4(C(F)(F)F)CCCC4)ccc3Cl)n2)ccc1Cl [Example 55],2.6,1.9,–,–
CO[C@](C)(C(=O)NCc1ccc(Cl)c(-c2nc(O)nc(-c3ccc(Cl)c(C(C)C)c3)n2)c1)C(F)(F)F [Example 56],2.6,0.7,–,–
COC1(C(=O)NCc2ccc(Cl)c(-c3nc(O)nc(-c4ccc(Cl)c(C(C)C)c4)n3)c2)CCCCC1 [Example 57],4.5,2.9,–,–
COc1ncc(-c2nc(O)nc(-c3cc(CNC(=O)C(C)(C)C(F)(F)F)ccc3Cl)n2)cc1C(C)C [Example 58],150,1,–,–
CC(C)(C(=O)NCc1ccc(Cl)c(-c2nc(O)nc(-c3ccc(OC4CCC4)nc3)n2)c1)C(F)(F)F [Example 59],53,0.3,–,–
O=C(NCc1ccc(Cl)c(-c2nc(O)nc(-c3ccc(OC4CCC4)nc3)n2)c1)C1(C(F)(F)F)CCCCC1 [Example 60],8.3,0.4,–,–
COCCCCOc1ccc(-c2nc(O)nc(-c3cc(CNC(=O)C(C)(C)C(F)(F)F)ccc3Cl)n2)cn1 [Example 61],–,0.5,79,–
COc1ncc(-c2nc(O)nc(-c3cc(CNC(=O)C4(C(F)(F)F)CCCCC4)ccc3Cl)n2)cc1C(C)C [Example 62],–,1,50,–
CC1(c2cccc(-c3nc(O)nc(-c4cc(CNC(=O)C5(C(F)(F)F)CCCC5)ccc4Cl)n3)c2)CC1 [Example 63],–,1.7,14,–
CC1(c2cccc(-c3nc(O)nc(-c4cc(CNC(=O)C5(C(F)(F)F)CCCCC5)ccc4Cl)n3)c2)CC1 [Example 64],–,1.6,5.3,–
CO[C@](C)(C(=O)NCc1ccc(Cl)c(-c2nc(O)nc(-c3cccc(C4(C)CC4)c3)n2)c1)C(F)(F)F [Example 65],–,1.1,9.7,–
CC(C)(C)c1cc(-c2nc(O)nc(-c3cc(CNC(=O)C(C)(C)C(F)(F)F)ccc3Cl)n2)ccc1F [Example 67],–,2.8,3.9,–
CCOCCCOc1ccc(-c2nc(O)nc(-c3cc(CNC(=O)C4(C(F)(F)F)CCCCC4)ccc3Cl)n2)cn1 [Example 68],–,0.6,11,–
CCCOCCOc1ccc(-c2nc(O)nc(-c3cc(CNC(=O)C4(C(F)(F)F)CCCCC4)ccc3Cl)n2)cn1 [Example 69],–,2.3,8.1,–
CC(C)c1cccc(-c2nc(O)nc(-c3cc(CNC(=O)C(C)(C)CF)ccc3Cl)n2)c1 [Example 70],–,1.5,56,–
CCCc1cc(-c2nc(O)nc(-c3cc(CNC(=O)C4(C(F)(F)F)CCCCC4)ccc3Cl)n2)cnc1OCC [Example 72],–,5.3,5.9,–
CCCc1cc(-c2nc(O)nc(-c3cc(CNC(=O)C(C)(C)C(F)(F)F)ccc3Cl)n2)cnc1OCC [Example 73],–,4.2,> 30,47
CO[C@@](C)(C(=O)NCc1ccc(Cl)c(-c2nc(O)nc(-c3cccc(C(C)C)c3)n2)c1)C(F)(F)F [Example 74],–,1.3,29,–
CCC(CC)(OC)C(=O)NCc1ccc(Cl)c(-c2nc(O)nc(-c3cccc(C(C)C)c3)n2)c1 [Example 75],–,1.8,32,–
CC(C)c1cccc(-c2nc(O)nc(-c3cc(CNC(=O)C(C)(C)CC(F)(F)F)ccc3Cl)n2)c1 [Example 76],–,1.3,88,–
